From patent US10865191B2, “Heterocyclic compounds useful as modulators of TNF alpha” (BRISTOL-MYERS SQUIBB COMPANY, priority 2015, dated 2020)

molecular target: TNFα (Homo sapiens, UniProt P01375); experiment: TNF induced HEK-Blue assay (NF-kB-driven secreted alkaline phosphatase reporter); type: cell-based; conditions: TNFα 0.5 ng/mL, HEK-Blue-CD40L cells, 18 h; read-out: TNF induced HEK-Blue assay IC50 value
In short: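 HEK-Blue-CD40L cells (NF-kB-driven SEAP reporter), 20,000/well, added after 30 min pre-incubation of compound (0.004–25 μM final) with TNFα 0.5 ng/mL final at 37 °C; 18 h incubation. SEAP read with QUANTI-Blue at 620 nm; IC50 from 4-parameter logistic fit, normalized to unstimulated and stimulated DMSO controls.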

Chain of TNFα (P01375 77-233 limits assumed): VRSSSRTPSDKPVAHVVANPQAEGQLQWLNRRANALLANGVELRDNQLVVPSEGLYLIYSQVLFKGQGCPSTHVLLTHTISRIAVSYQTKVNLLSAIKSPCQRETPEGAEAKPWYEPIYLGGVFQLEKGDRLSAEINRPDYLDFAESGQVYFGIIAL

Row | IC50 [µM] | SMILES
1 | < 1 | Cc1nc2cc(F)c(-c3cnc(C(C)(C)O)nc3)cc2c(N[C@H](C)c2cc(CCC(N)=O)ccc2F)c1Cl [Example 445, (R)-3-(3-(1-((3-chloro-7-fluoro-6-(2-(2-hydroxypropan-2-yl)pyrimidin-5-yl)-2-methylquinolin-4-yl)amino)ethyl)-4-fluorophenyl)propanamide]
2 | 1 to 10 | Cc1nc2cc(F)c(-c3cnc(C(C)(C)O)nc3)cc2c(N[C@H](C)c2cc(CCC(=O)O)ccc2F)c1Cl [Example 446, (R)-3-(3-(1-((3-chloro-7-fluoro-6-(2-(2-hydroxypropan-2-yl)pyrimidin-5-yl)-2-methylquinolin-4-yl)amino)ethyl)-4-fluorophenyl)propanoic acid]
3 | < 1 | Cc1nc2ccc(-c3cnc(N4CCNC(=O)C4)nc3)cc2c(N[C@H](C)c2cc(C(N)=O)ccc2F)c1Cl [Example 447, (R)-3-(1-((3-chloro-2-methyl-6-(2-(3-oxopiperazin-1-yl)pyrimidin-5-yl)quinolin-4-yl)amino)ethyl)-4-fluorobenzamide]
4 | < 1 | Cc1nc2cc(F)c(-c3cnc(N4CCNC(=O)C4)nc3)cc2c(N[C@H](C)c2cc(C(N)=O)ccc2F)c1Cl [Example 448, (R)-3-(1-((3-chloro-7-fluoro-2-methyl-6-(2-(3-oxopiperazin-1-yl)pyrimidin-5-yl)quinolin-4-yl)amino)ethyl)-4-fluorobenzamide]
5 | < 1 | Cc1nc2cc(F)c(-c3ccc(=O)[nH]c3)cc2c(N[C@H](C)c2cc(Br)ccc2F)c1Cl [Example 449, (R)-5-(4-((1-(5-bromo-2-fluorophenyl)ethyl)amino)-3-chloro-7-fluoro-2-methylquinolin-6-yl)pyridin-2(1H)-one]
6 | < 1 | Cc1nc2cc(F)c(-c3ccc(=O)[nH]c3)cc2c(N[C@H](C)c2cc(C#N)ccc2F)c1Cl [Example 450, (R)-3-(1-((3-chloro-7-fluoro-2-methyl-6-(6-oxo-1,6-dihydropyridin-3-yl)quinolin-4-yl)amino)ethyl)-4-fluorobenzonitrile]
7 | 1 to 10 | COc1ccc(F)c([C@@H](C)Nc2c(Cl)cnc3ccccc23)c1 [Example 451, (R)-3-chloro-N-(1-(2-fluoro-5-methoxyphenyl)ethyl)quinolin-4-amine]
8 | 1 to 10 | C=CCc1ccc(F)c([C@@H](C)Nc2c(Cl)cnc3ccccc23)c1 [Example 452, (R)—N-(1-(5-allyl-2-fluorophenyl)ethyl)-3-chloroquinolin-4-amine]
9 | 1 to 10 | CCC(Nc1c(Cl)cnc2ccccc12)c1ccccc1F (centres unmarked) [Example 453, 3-chloro-N-(1-(2-fluorophenyl)propyl)quinolin-4-amine]
10 | < 1 | C[C@@H](Nc1c(Cl)cnc2ccccc12)c1cc(-c2cnn(C)c2)ccc1F [Example 454, (R)-3-chloro-N-(1-(2-fluoro-5-(1-methyl-1H-pyrazol-4-yl)phenyl)ethyl)quinolin-4-amine]
11 | < 1 | C[C@@H](Nc1c(Cl)cnc2ccccc12)c1cc(-c2cn[nH]c2)ccc1F [Example 455, (R)-3-chloro-N-(1-(2-fluoro-5-(1H-pyrazol-4-yl)phenyl)ethyl)quinolin-4-amine]
12 | 10 to 25 | COc1ccc(F)c([C@@H](C)Nc2ccnc3ccc(Cl)cc23)c1 [Example 456, (R)-6-chloro-N-(1-(2-fluoro-5-methoxyphenyl)ethyl)quinolin-4-amine]
13 | 1 to 10 | C=CCOc1ccc(F)c([C@@H](C)Nc2c(Cl)cnc3ccccc23)c1 [Example 457, (R)—N-(1-(5-(allyloxy)-2-fluorophenyl)ethyl)-3-chloroquinolin-4-amine]
14 | 1 to 10 | C[C@@H](Nc1c(Cl)cnc2ccccc12)c1cc(OCCCO)ccc1F [Example 458, (R)-3-(3-(1-((3-chloroquinolin-4-yl)amino)ethyl)-4-fluorophenoxy)propan-1-ol]
15 | < 1 | C[C@@H](Nc1c(Cl)cnc2ccccc12)c1cc(-c2ccccc2)ccc1F [Example 459, (R)-3-chloro-N-(1-(4-fluoro-[1,1′-biphenyl]-3-yl)ethyl)quinolin-4-amine]
16 | < 1 | COc1ccc(-c2ccc(F)c([C@@H](C)Nc3c(Cl)cnc4ccccc34)c2)cn1 [Example 460, (R)-3-chloro-N-(1-(2-fluoro-5-(6-methoxypyridin-3-yl)phenyl)ethyl)quinolin-4-amine]
17 | < 1 | C[C@@H](Nc1c(Cl)cnc2ccccc12)c1cc(-c2cccnc2)ccc1F [Example 461, (R)-3-chloro-N-(1-(2-fluoro-5-(pyridin-3-yl)phenyl)ethyl)quinolin-4-amine]
18 | 10 to 25 | COc1cccc([C@@H](C)Nc2c(Cl)cnc3ccccc23)c1 [Example 462, (R)-3-chloro-N-(1-(3-methoxyphenyl)ethyl)quinolin-4-amine]
19 | 10 to 25 | C[C@@H](Nc1c(Cl)cnc2ccccc12)c1ccccc1C(F)(F)F [Example 463, 3-chloro-N-(1-(2-(trifluoromethyl)phenyl)ethyl)quinolin-4-amine]

Row | IC50 [µM] | SMILES
20 | 1 to 10 | C[C@@H](Nc1c(Cl)cnc2ccccc12)c1cc(CCCO)ccc1F [Example 464, (R)-3-(3-(1-((3-chloroquinolin-4-yl)amino)ethyl)-4-fluorophenyl)propan-1-ol]
21 | 1 to 10 | C[C@@H](Nc1c(Cl)cnc2ccccc12)c1cc(-c2cnn(CC(C)(C)O)c2)ccc1F [Example 465, (R)-1-(4-(3-(1-((3-chloroquinolin-4-yl)amino)ethyl)-4-fluorophenyl)-1H-pyrazol-1-yl)-2-methylpropan-2-ol]
22 | 10 to 25 | C[C@@H](Nc1c(Cl)cnc2ccccc12)c1cc(-c2cnn(Cc3ccccc3)c2)ccc1F [Example 466, (R)—N-(1-(5-(1-benzyl-1H-pyrazol-4-yl)-2-fluorophenyl)ethyl)-3-chloroquinolin-4-amine]
23 | 1 to 10 | C[C@@H](Nc1c(Cl)cnc2ccccc12)c1cc(-c2cnc(N3CCOCC3)nc2)ccc1F [Example 467, (R)-3-chloro-N-(1-(2-fluoro-5-(2-morpholinopyrimidin-5-yl)phenyl)ethyl)quinolin-4-amine]
24 | 1 to 10 | C[C@@H](Nc1c(Cl)cnc2ccccc12)c1cc(-c2ccncc2)ccc1F [Example 468, (R)-3-chloro-N-(1-(2-fluoro-5-(pyridin-4-yl)phenyl)ethyl)quinolin-4-amine]
25 | 1 to 10 | C[C@@H](Nc1c(Cl)cnc2ccccc12)c1cc(-c2cnc(C(C)(C)O)nc2)ccc1F [Example 469, (R)-2-(5-(3-(1-((3-chloroquinolin-4-yl)amino)ethyl)-4-fluorophenyl)pyrimidin-2-yl)propan-2-ol]
26 | 10 to 25 | Cc1ccc(Br)cc1Nc1c(Cl)c(C)nc2ccccc12 [Example 470, N-(5-bromo-2-methylphenyl)-3-chloro-2-methylquinolin-4-amine]
27 | 1 to 10 | C[C@@H](Nc1c(Cl)cnc2ccccc12)c1cc(-c2cnn(C(F)F)c2)ccc1F [Example 471, (R)-3-chloro-N-(1-(5-(1-(difluoromethyl)-1H-pyrazol-4-yl)-2-fluorophenyl)ethyl) quinolin-4-amine]
28 | 1 to 10 | C[C@@H](Nc1c(Cl)cnc2ccccc12)c1cc(-c2cn(C)nc2C(F)(F)F)ccc1F [Example 472, (R)-3-chloro-N-(1-(2-fluoro-5-(1-methyl-3-(trifluoromethyl)-1H-pyrazol-4-yl)phenyl)ethyl)quinolin-4-amine]
29 | < 1 | CCn1cc(-c2ccc(F)c([C@@H](C)Nc3c(Cl)cnc4ccccc34)c2)cn1 [Example 473, (R)-3-chloro-N-(1-(5-(1-ethyl-1H-pyrazol-4-yl)-2-fluorophenyl)ethyl)quinolin-4-amine]
30 | < 1 | Cc1c(-c2ccc(F)c([C@@H](C)Nc3c(Cl)cnc4ccccc34)c2)cnn1C [Example 474, (R)-3-chloro-N-(1-(5-(1,5-dimethyl-1H-pyrazol-4-yl)-2-fluorophenyl)ethyl)quinolin-4-amine]
31 | 1 to 10 | Cc1ncccc1-c1ccc(F)c([C@@H](C)Nc2c(Cl)cnc3ccccc23)c1 [Example 475, (R)-3-chloro-N-(1-(2-fluoro-5-(2-methylpyridin-3-yl)phenyl)ethyl)quinolin-4-amine]
32 | 1 to 10 | COc1ccc(F)c([C@H](C)Nc2c(Cl)cnc3ccccc23)c1 [Example 476, (S)-3-chloro-N-(1-(2-fluoro-5-methoxyphenyl)ethyl)quinolin-4-amine]
33 | 1 to 10 | Cc1cc(-c2ccc(F)c([C@@H](C)Nc3c(Cl)cnc4ccccc34)c2)cnn1 [Example 477, (R)-3-chloro-N-(1-(2-fluoro-5-(6-methylpyridazin-4-yl)phenyl)ethyl)quinolin-4-amine]
34 | < 1 | C[C@@H](Nc1c(Cl)cnc2ccccc12)c1cc(-c2ccc(N)nc2)ccc1F [Example 478, (R)—N-(1-(5-(6-aminopyridin-3-yl)-2-fluorophenyl)ethyl)-3-chloroquinolin-4-amine]
35 | < 1 | C[C@@H](Nc1c(Cl)cnc2ccccc12)c1cc(-c2cncnc2)ccc1F [Example 479, (R)-3-chloro-N-(1-(2-fluoro-5-(pyrimidin-5-yl)phenyl)ethyl)quinolin-4-amine]
36 | 10 to 25 | C[C@@H](Nc1c(Cl)cnc2ccccc12)c1cc(-c2cnn(CCN3CCOCC3)c2)ccc1F [Example 480, (R)-3-chloro-N-(1-(2-fluoro-5-(1-(2-morpholinoethyl)-1H-pyrazol-4-yl)phenyl)ethyl)quinolin-4-amine]
37 | < 1 | C[C@@H](Nc1c(Cl)cnc2ccccc12)c1cc(-c2cnc(N)nc2)ccc1F [Example 481, (R)—N-(1-(5-(2-aminopyrimidin-5-yl)-2-fluorophenyl)ethyl)-3-chloroquinolin-4-amine]
38 | 10 to 25 | CC(=O)NC(CO)c1ccc(-c2ccc3ncc(Cl)c(N[C@H](C)c4ccccc4F)c3c2)cc1 (stereo partly drawn) [Example 482, N-(1-(4-(3-chloro-4-(((R)-1-(2-fluorophenyl)ethyl)amino)quinolin-6-yl)phenyl)-2-hydroxyethyl)acetamide]
